Measurements: BindingDB's records for doi:10.1021/acs.jmedchem.1c00779 (Hong Kong Polytechnic University, 2021)

Assays:
[1] = Inhibition of BCRP (unknown origin) transfected in HEK293/R2 cells assessed as reversal of topotecan resistance after 5 days by MTS/PMS assay
[2] = Inhibition of MRP1 (unknown origin) expressed in human 2008/MRP1 cells assessed as reversal of doxorubicin resistance after 5 days by MTS/PMS assay
[3] = Inhibition of BCRP (unknown origin) expressed in MCF7/MX100 cells assessed as reversal of topotecan resistance after 5 days by MTS/PMS assay
[4] = Inhibition of P-gp (unknown origin) expressed in human LCC6MDR cells assessed as reversal of paclitaxel resistance after 5 days by MTS/PMS assay
[5] = Inhibition of BCRP (unknown origin) expressed in human HEK293/R2 cells assessed as reversal of mitoxantrone resistance after 5 days by MTS/PMS assay
[6] = Inhibition of P-gp (unknown origin) expressed in human LCC6MDR cells assessed as reversal of mitoxantrone resistance after 5 days by MTS/PMS assay
[7] = Inhibition of MRP1 (unknown origin) expressed in human 2008/MRP1 cells assessed as reversal of mitoxantrone resistance after 5 days by MTS/PMS assay

| SMILES | EC50 [1] | further results |
| --- | --- | --- |
| COC(=O)c1cccc(COc2c(-c3ccc(OCCOCCn4cc(-c5cccc(-c6cn(CCOCCOc7ccc(-c8oc9ccccc9c(=O)c8OCc8cccc(C(=O)OC)c8)cc7)nn6)c5)nn4)cc3)oc3ccccc3c2=O)c1 | 2.5 nM | – |
| C#CCN(CC#C)CC#C | > 1000 nM | – |
| C#CCCN1C(=O)c2ccccc2C1=O | > 1000 nM | – |
| C#CCN(Cc1ccccc1)Cc1ccccc1 | > 1000 nM | – |
| C#CCNc1ccccc1 | > 1000 nM | – |
| COC(=O)c1cccc(COc2c(-c3ccc(OCCOCCN=[N+]=[N-])cc3)oc3ccccc3c2=O)c1 | – | EC50 [2]: > 1000 nM; EC50 [3]: 50 nM; EC50 [4]: > 1000 nM |
| COC(=O)c1cccc(COc2c(-c3ccc(OCCOCCOCCN=[N+]=[N-])cc3)oc3ccccc3c2=O)c1 | – | EC50 [2]: > 1000 nM; EC50 [3]: 17 nM; EC50 [4]: 298 nM |
| COC(=O)c1cccc(COc2c(-c3ccc(OCCCCc4cn(CCOCCO)nn4)cc3)oc3ccccc3c2=O)c1 | 10 nM | EC50 [2]: > 1000 nM; EC50 [3]: 27 nM; EC50 [4]: 606 nM |
| COC(=O)c1cccc(COc2c(-c3ccc(OCCCCc4cn(Cc5ccccc5)nn4)cc3)oc3ccccc3c2=O)c1 | 7 nM | EC50 [2]: > 1000 nM; EC50 [5]: 13 nM; EC50 [3]: 6 nM; EC50 [4]: 670 nM; EC50 [6]: 673 nM; EC50 [7]: 886 nM |
| COC(=O)c1cccc(COc2c(-c3ccc(OCCOCCn4cc(CN(C)Cc5ccccc5)nn4)cc3)oc3ccccc3c2=O)c1 | 15 nM | EC50 [2]: > 1000 nM; EC50 [5]: 17 nM; EC50 [3]: 3.5 nM; EC50 [4]: > 1000 nM; EC50 [6]: 644 nM; EC50 [7]: 681 nM |
| COC(=O)c1cccc(COc2c(-c3ccc(OCCOCCn4cc(CCN5C(=O)c6ccccc6C5=O)nn4)cc3)oc3ccccc3c2=O)c1 | 46 nM | EC50 [2]: > 1000 nM; EC50 [3]: 97 nM; EC50 [4]: > 1000 nM |
| COC(=O)c1cccc(COc2c(-c3ccc(OCCOCCn4cc(CN(Cc5ccccc5)Cc5ccccc5)nn4)cc3)oc3ccccc3c2=O)c1 | 32 nM | EC50 [2]: > 1000 nM; EC50 [3]: 30 nM; EC50 [4]: > 1000 nM |
| COC(=O)c1cccc(COc2c(-c3ccc(OCCOCCn4cc(CNc5ccccc5)nn4)cc3)oc3ccccc3c2=O)c1 | 26 nM | EC50 [2]: > 1000 nM; EC50 [3]: 44 nM; EC50 [4]: > 1000 nM |
| COC(=O)c1cccc(COc2c(-c3ccc(OCCOCCOCCn4cc(CN(C)Cc5ccccc5)nn4)cc3)oc3ccccc3c2=O)c1 | 16 nM | EC50 [2]: > 1000 nM; EC50 [3]: 28 nM; EC50 [4]: 830 nM |
| COC(=O)c1cccc(COc2c(-c3ccc(OCCOCCOCCn4cc(CCN5C(=O)c6ccccc6C5=O)nn4)cc3)oc3ccccc3c2=O)c1 | 160 nM | EC50 [2]: > 1000 nM; EC50 [4]: > 1000 nM |
| COC(=O)c1cccc(COc2c(-c3ccc(OCCOCCOCCn4cc(CCCCOc5ccc(C=O)cc5)nn4)cc3)oc3ccccc3c2=O)c1 | 19 nM | EC50 [2]: 865 nM; EC50 [3]: 38 nM; EC50 [4]: > 1000 nM |
| COC(=O)c1cccc(COc2c(-c3ccc(OCCOCCOCCn4cc(CN(CCO)Cc5ccccc5)nn4)cc3)oc3ccccc3c2=O)c1 | 1.4 nM | EC50 [2]: > 1000 nM; EC50 [5]: 165 nM; EC50 [3]: 1.6 nM; EC50 [4]: 309 nM; EC50 [6]: 817 nM; EC50 [7]: 592 nM |
| [N-]=[N+]=NCCOCCOCCOc1ccc(-c2oc3ccccc3c(=O)c2OCc2ccccc2)cc1 | 52 nM | – |
| [N-]=[N+]=NCCOCCO | > 1000 nM | – |
| [N-]=[N+]=NCCOCCOc1cccc(-c2oc3ccccc3c(=O)c2OCc2ccccc2)c1 | 169 nM | – |
| C#CCN(C)Cc1ccccc1 [N-benzyl-N-methylprop-2-yn-1-amine] | > 1000 nM | – |

Further lines, with some results ahead:

| EC50 [1] | SMILES | further results |
| --- | --- | --- |
| > 1000 nM | C#CCCCOc1ccc(-c2cc(=O)c3ccccc3o2)cc1 | – |
| > 1000 nM | C#CCCCOc1ccc2c(=O)cc(-c3ccccc3)oc2c1 | – |
| 325 nM | C#CCCCOc1ccc(-c2cc(=O)c3ccc(F)cc3o2)cc1 | – |
| 201 nM | C#CCCCOc1ccc(-c2cc(=O)c3c(OCc4ccccc4)cc(OCOC)cc3o2)cc1 | – |
| > 1000 nM | C#CCCCOc1ccc(-c2cc(=O)c3cc(C)ccc3o2)cc1 | – |
| > 1000 nM | C#CCCCCOc1ccc(/C=C/C(=O)c2ccccc2O)cc1 | – |
| > 1000 nM | C#CCCCCOc1ccc(/C=C/C(=O)c2cc(CC)ccc2O)cc1 | – |
| > 1000 nM | C#CCCCCOc1ccc(/C=C/C(=O)c2cc(C)ccc2O)cc1 | – |
| > 1000 nM | C#CCCCCOc1ccc(/C=C/C(=O)c2ccc(C)cc2O)cc1 | – |
| > 1000 nM | C#CCCCCOc1ccc(/C=C/C(=O)c2ccc(F)cc2O)cc1 | – |
| > 1000 nM | C#CCCCOc1ccc(-c2nc3ccccc3c(=O)[nH]2)cc1 | – |
| > 1000 nM | C#CCCCCOc1ccc2c(=O)cc(-c3ccccc3)oc2c1 | – |
| > 1000 nM | C#CCOCCOc1ccc2c(=O)cc(-c3ccccc3)oc2c1 | – |
| > 1000 nM | C#CCN(CCOc1ccc2c(=O)cc(-c3ccccc3)oc2c1)Cc1ccccc1 | – |
| 44 nM | C#CCCCCOc1ccc(-c2oc3ccccc3c(=O)c2OCc2cccc(C(=O)OC)c2)cc1 | EC50 [2]: > 1000 nM; EC50 [3]: 34 nM; EC50 [4]: 821 nM |
| > 1000 nM | C#CCCCCOc1ccc(C=O)cc1 | – |
| 261 nM | C#CCCCCOc1ccc(-c2oc3ccccc3c(=O)c2OCc2cccc(OC)c2)cc1 | – |
| 240 nM | C#CCCCCOc1ccc(-c2cc(=O)c3cc(F)ccc3o2)cc1 | – |
| 417 nM | C#CCCCOc1ccc(-c2cc(=O)c3cc(F)ccc3o2)cc1 | – |
| > 1000 nM | O=c1cc(-c2ccccc2)oc2cc(OCCNCc3ccccc3)ccc12 | – |
| 365 nM | [N-]=[N+]=NCCOCCOc1ccc(-c2cc(=O)c3ccccc3o2)cc1 | – |
| 363 nM | [N-]=[N+]=NCCOCCOCCOc1ccc(-c2cc(=O)c3ccccc3o2)cc1 | – |
| 750 nM | Cc1ccc2oc(-c3ccc(OCCOCCOCCN=[N+]=[N-])cc3)cc(=O)c2c1 | – |
| 840 nM | [N-]=[N+]=NCCOCCOc1ccc(-c2cc(=O)c3cc(F)ccc3o2)cc1 | – |
| 45 nM | [N-]=[N+]=NCCOCCOc1ccc(-c2oc3ccccc3c(=O)c2OCc2ccccc2)cc1 | – |
| 223 nM | [N-]=[N+]=NCCOCCOc1ccc2c(=O)cc(-c3ccccc3)oc2c1 | – |
| 177 nM | [N-]=[N+]=NCCOCCOCCOc1ccc2c(=O)cc(-c3ccccc3)oc2c1 | – |
| 213 nM | [N-]=[N+]=NCCOc1ccc2c(=O)cc(-c3ccccc3)oc2c1 | – |
| 76 nM | COc1cccc(COc2c(-c3ccc(OCCOCCN=[N+]=[N-])cc3)oc3ccccc3c2=O)c1 | – |
